Columns and labels:
Assay in all cases: Microorganism Efficacy Test (percent reduction in culture)
Assay type in all cases: cell-based
[1] = test system: A brasiliensis ATCC 16404; conditions: time point 60 seconds
Method: (§1) Example 1: A Microorganism Efficacy Test for Step One using Hypochlorous acid was tested against a range of different germs and bacteria to determine its efficacy. The hypochlorous acid was added to cultures of the listed microorganisms and left for the indicated amount of time. The percent reduction of each microorganism was measured after the time period had elapsed and the results are shown below in Table 1.

[2] = test system: Acinetobacter baumannii ATCC 19606; conditions: time point 15 seconds
Method: as §1

[3] = test system: C Difficile ATCC 43598; conditions: time point 60 seconds
Method: as §1

[4] = test system: Candida albicans ATCC 1023; conditions: time point 60 seconds
Method: as §1

[5] = test system: E. Coli ATCC 8739; conditions: time point 60 seconds
Method: as §1

[6] = test system: Enterococcus faecalis (VRE) ATCC 51299; conditions: time point 15 seconds
Method: as §1

[7] = test system: K. pneumonia (CRE) ATCC BAA-2146; conditions: time point 60 seconds
Method: as §1

[8] = test system: Listeria Monocytogens ATCC 15313; conditions: time point 60 seconds
Method: as §1

[9] = test system: Propionibacterium Acnes ATCC 6919; conditions: time point 60 seconds
Method: as §1

[10] = test system: Proteus mirabilis ATCC7002; conditions: time point 15 seconds
Method: as §1

[11] = test system: Pseudomonas aeruginosa ATCC 9027; conditions: time point 60 seconds
Method: as §1

[12] = test system: S. aureus ATCC 6538; conditions: time point 60 seconds
Method: as §1

[13] = test system: Serratia marscesens ATCC 14756; conditions: time point 15 seconds
Method: as §1

[14] = test system: Staphylococcus arureus (MRSA) ATCC 33592; conditions: time point 15 seconds
Method: as §1

## OCl [Hypochlorous acid]
[1]
  % REDUCTION: >99.999%
[2]
  % REDUCTION: 100%
[3]
  % REDUCTION: >100%
[4]
  % REDUCTION: >99.9999%
[5]
  % REDUCTION: >99.999%
[6]
  % REDUCTION: 100%
[7]
  % REDUCTION: >99.9994%
[8]
  % REDUCTION: >99.96%
[9]
  % REDUCTION: >99.99%
[10]
  % REDUCTION: >99.999%
[11]
  % REDUCTION: >99.999%
[12]
  % REDUCTION: >99.999%
[13]
  % REDUCTION: >99.999%
[14]
  % REDUCTION: >99.999%
